Experimental findings from patent US20220009914A1, “Analogs of Nitrofuran Antibiotics to Combat Resistance” (The Trustees of Indiana University, priority 2020, published 2022) are described below.

Read-outs that look alike come from different tables or passages of the source.

Experiment [1] addresses T1, E. coli GroEL/ES (Escherichia coli, UniProt P0A6F5).
T1 construct: made in house; host or cells: GroEL in NEB 5-alpha E. coli; GroES in E. coli BL21 (DE3)
In words: GroEL/ES-mediated dRho refolding assay. It counts as biochemical. The protocol: Evaluating compounds for inhibition in the GroEL/ES-mediated dRho refolding assay. Reagent preparation: For this assay, five primary reagent stocks were prepared: 1) GroEL/ES-dRho binary complex stock; 2) ATP initiation stock; 3) thiocyanate enzymatic assay stock; 4) formaldehyde quench stock; 5) ferric nitrate reporter stock. Denatured rhodanese (dRho) was prepared by 3-fold dilution of rhodanese (Roche product #R^1756, diluted to 10 mg/mL with H2O) with denaturant buffer (12 M Urea, 50 mM Tris-HCl, pH 7.4, and 10 mM DTT). Rhodanese was completely denatured by incubating at room temperature for >45 min. The binary complex solution was prepared by slowly adding the dRho stock to a stirring stock of concentrated GroEL in modified folding buffer (50 mM Tris-HCl, pH 7.4, 50 mM KCl, 10 mM MgCl2, 5 mM Na2S2O3, and 1 mM DTT). The solution was centrifuged at 16,000×g for 5 minutes, and the supernatant was collected and added to a solution of GroES in modified folding buffer to give final protein concentrations of 100 nM GroEL, 120 nM GroES, and 80 nM dRho. The binary complex stock was prepared immediately prior to use. For the ATP initiation stock, ATP solid was diluted into modified folding buffer to a final concentration of 2.0 mM. The thiocyanate enzymatic assay stock was prepared to contain 70 mM KH2PO4, 80 mM KCN, and 80 mM Na2S2O3 in water. The formaldehyde quench solution contained 30% formaldehyde in water.
Assay Protocol: First, 10 μL aliquots of the GroEL/ES-dRho complex stock were dispensed into clear, flat-bottom 384-well polystyrene plates. […] After incubating for 40 minutes at 37° C. for the refolding cycle, 30 μL of the thiocyanate enzymatic assay stock was added and incubated for 60 min at room temperature for the refolded rhodanese enzymatic reporter reaction. The reporter reaction was quenched by adding 10 μL of the formaldehyde quench stock, and then 40 μL of the ferric nitrate reporter stock was added to quantify the amount of thiocyanate produced during the enzymatic reporter reaction, which is proportional to the amount of dRho refolded by GroEL/ES. After incubating at room temperature for 15 min, the absorbance by Fe(SCN)3 was measured at 460 nm using a Molecular Devices SpectraMax Plus384 microplate reader. A second set of baseline control plates were prepared analogously, but without GroEL/ES-dRho protein binary solution, to correct for possible interference from compound absorbance or turbidity. […] Results presented represent the averages of IC50 values obtained from at least four replicates.
Evaluating compounds for inhibition in the GroEL/ES-mediated dRho refolding assay. All compounds were evaluated for inhibiting E. coli GroEL/ES-mediated refolding of the denatured Rho reporter enzyme as per our previously reported procedure. Results presented represent the averages of IC50 values obtained from at least four replicates.

Experiment [2] concerns the target T2, native rhodanese (Bos taurus, UniProt P00586).
T2 sequence (P00586 1-297): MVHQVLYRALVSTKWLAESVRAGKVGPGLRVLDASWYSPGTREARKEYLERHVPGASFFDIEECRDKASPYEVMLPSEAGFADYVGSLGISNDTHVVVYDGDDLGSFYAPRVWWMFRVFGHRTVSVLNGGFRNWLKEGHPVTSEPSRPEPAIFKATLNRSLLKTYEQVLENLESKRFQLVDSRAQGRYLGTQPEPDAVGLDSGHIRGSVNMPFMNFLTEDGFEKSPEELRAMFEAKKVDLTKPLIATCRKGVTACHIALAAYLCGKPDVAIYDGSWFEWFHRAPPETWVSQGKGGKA
Briefly: native rhodanese enzymatic activity counter-screen. It counts as biochemical. The protocol:
Counter-screening compounds for inhibition of native rhodanese enzymatic activity. Reagent Preparations & Assay Protocol: Reagents were identical to those used in the GroEL/ES-dRho refolding assay described above; however, the assay protocol differed in the sequence of compound addition to the wells. Compounds were pin-transferred after 50 minute incubation for the refolding cycle, but prior to the addition of the thiocyanate enzymatic assay stock. Thus, the refolding reactions were allowed to proceed for 50 min at 37° C. in the absence of test compounds, but the enzymatic activity of the refolded rhodanese reporter enzyme was monitored in the presence of test compounds (inhibitor concentration range during the enzymatic reporter reaction is 100 μM to 46 nM—3-fold dilutions). IC50 values for the rhodanese reporter enzyme were determined as described above. Results presented represent the averages of IC50 values obtained from at least four replicates.
All compounds were counter-screened for inhibiting the enzymatic activity of the native Rho reporter enzyme as per our previously reported procedure. Results presented represent the averages of IC50 values obtained from at least four replicates.
(In general: Counterscreens check selectivity or assay interference.)

[3] abbreviates: compounds added after refolding, read-out: Native Rho Activity IC50.
Where [4] appears, read: read-out: GroEL/ES-dRho Refolding IC50.

T1 sequence (P0A6F5 2-548): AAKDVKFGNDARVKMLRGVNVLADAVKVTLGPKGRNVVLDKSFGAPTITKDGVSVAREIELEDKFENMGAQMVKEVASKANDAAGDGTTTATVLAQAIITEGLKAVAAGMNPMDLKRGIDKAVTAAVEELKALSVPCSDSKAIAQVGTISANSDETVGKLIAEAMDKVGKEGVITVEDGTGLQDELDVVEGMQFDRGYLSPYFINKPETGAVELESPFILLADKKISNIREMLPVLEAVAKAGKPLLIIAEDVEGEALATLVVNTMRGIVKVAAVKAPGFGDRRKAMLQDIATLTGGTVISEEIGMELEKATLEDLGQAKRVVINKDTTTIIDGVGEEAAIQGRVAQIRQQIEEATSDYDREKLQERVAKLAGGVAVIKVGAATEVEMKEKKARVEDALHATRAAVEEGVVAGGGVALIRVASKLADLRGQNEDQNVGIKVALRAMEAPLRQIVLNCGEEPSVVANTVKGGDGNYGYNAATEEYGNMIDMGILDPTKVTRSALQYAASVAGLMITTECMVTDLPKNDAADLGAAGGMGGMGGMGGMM

With `O=C(N/N=C/c1ccc(O)c2ncccc12)c1ccc(NS(=O)(=O)c2ccc(Br)cc2)cc1` [Compound 14, 4-bromo-N-(4-(2-((8-hydroxyquinolin-5-yl)methylene)hydrazine-1-carbonyl)phenyl)benzenesulfonamide], the IC50 in experiment [1] is 1.8 µM; in experiment [2] (setting [3]), greater than 100 µM.
Take `O=C(N/N=C/c1ccc([N+](=O)[O-])o1)c1ccc(Cl)s1` [Compound 17, 5-chloro-N′-((5-nitrofuran-2-yl)methylene)thiophene-2-carbohydrazide]: the figures for the IC50 in experiment [1] (setting [4]) and in experiment [2] (setting [3]) were 60 µM and 56 µM, respectively.
For `O=C(N/N=C/c1ccc(O)c2ncccc12)c1cccc2ccccc12` [Compound 9, N′-((8-hydroxyquinolin-5-yl)methylene)-1-naphthohydrazide], the values for the IC50 in experiment [1] and in experiment [2] (setting [3]) were 2.1 µM and 97 µM, respectively.
The corresponding values for `O=C(N/N=C/c1cccc2ncccc12)c1ccccc1` [Compound 32, N′-(quinolin-5-ylmethylene)benzohydrazide] are greater than 250 µM and greater than 100 µM.
Take `COc1ccc(C(=O)N/N=C/c2ccco2)cc1` [Compound 39, N′-(furan-2-ylmethylene)-4-methoxybenzohydrazide]: the results for the IC50 in experiment [1] and in experiment [2] (setting [3]) were greater than 250 µM and greater than 100 µM, respectively.
The corresponding values for `O=C(N/N=C/c1ccc(O)c2ncccc12)c1ccc(Cl)s1` [Compound 4, 5-chloro-N′-((8-hydroxyquinolin-5-yl)methylene)thiophene-2-carbohydrazide] are 1.4 µM and 14 µM.
With `O=C(N/N=C/c1ccc([N+](=O)[O-])o1)c1ccc(O)cc1` [Nifuroxazide, reference compound], the figures for the IC50 in experiment [1] and in experiment [2] were 133 µM and 69 µM, respectively.
Consider `COc1ccc(C(=O)N/N=C/c2cccc3ncccc23)cc1` [Compound 31, 4-methoxy-N′-(quinolin-5-ylmethylene)benzohydrazide], for which the IC50 in experiment [1] was greater than 250 µM; in experiment [2] (setting [3]), greater than 100 µM.
For the molecule `CCN(CC)S(=O)(=O)c1cccc(C(=O)N/N=C/c2ccc([N+](=O)[O-])o2)c1` [Compound 25, N,N-diethyl-3-(2-((5-nitrofuran-2-yl)methylene)hydrazine-1-carbonyl)benzenesulfonamide], the IC50 in experiment [1] is 100 µM; in experiment [2] (setting [3]) it was greater than 100 µM.
As to `O=C(N/N=C/c1ccc([N+](=O)[O-])o1)c1ccccc1` [Compound 18, N′-((5-nitrofuran-2-yl)methylene)benzohydrazide], the IC50 worked out at 100 µM in experiment [1] and 84 µM in experiment [2] (setting [3]).
In the same order, the values of `O=C(N/N=C/c1ccc(O)c2ncccc12)c1ccc(O)cc1` [Compound 7, 4-hydroxy-N′-((8-hydroxyquinolin-5-yl)methylene)benzohydrazide] are 9 µM and 72 µM.
The corresponding values for `COc1ccc(C(=O)N/N=C/c2ccc([N+](=O)[O-])o2)cc1` [Compound 20, 4-methoxy-N′-((5-nitrofuran-2-yl)methylene)benzohydrazide] are 108 µM and greater than 100 µM.
In the same order, the values of `CCOc1ccc(S(=O)(=O)Nc2ccc(C(=O)N/N=C/c3ccc([N+](=O)[O-])o3)cc2)cc1` [Compound 28, 4-ethoxy-N-(4-(2-((5-nitrofuran-2-yl)methylene)hydrazine-1-carbonyl)phenyl)benzenesulfonamide] are 66 µM and 45 µM.
As to `O=C1CN(/N=C/c2ccc([N+](=O)[O-])o2)C(=O)N1` [Nitrofurantoin, reference compound], the IC50 in experiment [1] was greater than 250 µM; in experiment [2], greater than 100 µM.
For the molecule `O=C(N/N=C/c1cccc2ccccc12)c1ccccc1` [Compound 34, N′-(naphthalen-1-ylmethylene)benzohydrazide], the figures for the IC50 in experiment [1] and in experiment [2] (setting [3]) were 209 µM and greater than 100 µM, respectively.
For `CN(C)c1ccc(C(=O)N/N=C/c2ccc([N+](=O)[O-])o2)cc1` [Compound 21, 4-(dimethylamino)-N′-((5-nitrofuran-2-yl)methylene)benzohydrazide], the IC50 in experiment [1] (setting [4]) is 26 µM; in experiment [2] (setting [3]), greater than 100 µM.
